Measured values reported in patent US20200378993A1, “MEDICAL USES OF APOLIPOPROTEIN A AND ACTIVATORS THEREOF” (FUNDACIÓN IMDEA ALIMENTACIÓN, priority 2017, published 2020).

Tests used:
Assay type in all cases: cell-based, human
[1] = test system: DLD1 cells overexpressing ABCA1; test: Growth of Matrigel-embedded spheroids; details: treatment with Rvx-208; Matrigel-embedded spheroids from DLD1 cells overexpressing ABCA1
Description: FIG. 8: A) Growth of spheroids derived from control cells and cells overexpressing ABCA1. The top panels correspond to the control treatment (carrier), the bottom panels correspond to treatment with Rvx-208. The growth curves represent the mean volume of a total of 30 spheroids per cell line. The inventors were able to confirm said results based on the treatment of DLD1 cells expressing ABCA1 with RVX-208 under the conditions already described in detail in Example 3. In this case, the DLD1 cells overexpressing ABCA1 were pre-treated for 72 hours before the start of the experiment with RVX-208 at a concentration of 30 μm and were subjected to a treatment with 15 μM of RVX-208 during the development of the experiments. […] The levels of caveolin-1, a protein whose increased levels have been associated with increases in cell migration and invasion, were also analyzed in this experiment.

[2] = test system: DLD1 cells; test: Cell viability and proliferation assay (XCELLigence)
Experimental: Cell viability and proliferation assays were carried out by means of XCELLigence technology (ACEA Biosciences, Inc.) following the manufacturer's indications. Migration and invasion assays were carried out in Corning® BioCoat™ Control plates (#354578) and Corning® BioCoat™ Matrigel plates (#354480), respectively, following the manufacturer's indications. For the rescue assays, the cells were treated for 72 hours with 30 μM apabetalone (RVX-208; Biovision). Antibodies: ABCA1 (Ab18180, Abcam. 1:500); caveolin-1 (Ab2910, Abcam. 1:1000); α-tubulin (T9026, Sigma 1:1000). The DLD1 cells correspond to a human colorectal cancer-derived adherent epithelial cell line (ATCC® CCL-221™). The stable cell lines capable of overexpressing ABCA1 were obtained by means of transduction with genetically modified lentivirus.
Following the same treatment regimen, the inventors carried out migration and invasion assays.
The same assays were repeated by replacing ApoA1 with a treatment with RVX-208. In this case, DLD1 cells were pre-treated for 72 hours before the start of the experiment with RVX-208 at a concentration of 30 μm and were subjected to a treatment with 15 μM of RVX-208 during the development of the experiments.
For the purpose of confirming that the effects of RVX-208 in cell phenotype recovery were due to the increase in ApoA-1 expression, the inventors inhibited the expression of said protein by means of transfection of a complementary small RNA, ShApoA1 (FIG. 9). Twenty-four hours after transfection with ShApoA1 expression vector, the inventors started treatment with 30 μM of RVX-208. Cell viability and proliferation in DLD1 cells (D_NoORF) and D1D1 cell lines expressing increased ApoA1 levels (D_ApoA1 ) were analyzed with the xCELLigence system.

[3] = test system: vimentin; test: Epithelial-mesenchymal transition marker expression by quantitative PCR; details: RVX-208 30 μm 72 hours then 15 μM
Experimental: (§1) FIG. 4. A) Proliferation curve in a viability assay carried out by means of XCELLigence technology. Growth of DLD1 cells treated with DMSO as the drug carrier and with Rvx-208 (30 μM). The significant differences existing in the slope of the graph, and therefore in the growth dynamics of the treated cells are shown in the right panel (**p-value=0.0087). B) Image representing the untreated cell cultures and those treated with Rvx-208. Expression levels of proteins E-cadherin and vimentin in the presence and absence of Rvx-208. Analysis performed by means of quantitative PCR. The relative expression levels normalized with respect to the untreated control are shown. C) Migration and invasion assays in the presence of Rcx-208. FIG. 7. A) Proliferation curve in a viability assay carried out by means of XCELLigence technology. Growth of DLD1 cells treated with DMSO as the drug carrier and with Rvx-208 (30 μM). The significant differences existing in the slope of the graph, and therefore in the growth dynamics of the treated cells are shown in the right panel (****p-value<0.0001). B) Migration and invasion assays. The method followed was the same as the one described in FIG. 2 (*p-value=0.0407; ****p-value<0.0001). C) Expression levels of proteins E-cadherin and Vimentin in the presence and absence of Rvx-208. Analysis performed by means of quantitative PCR. The relative expression levels normalized with respect to the untreated control are shown. D) ABCA1, ApoA1, caveolin-1, and α-tubulin immunodetection by means of Western blot. α-tubulin acts as load control. The results of the cells treated with Rvx-208 (30 μM) or with the DMSO carrier are shown. E) Cholesterol flux in cells treated with Rvx-208. The same assays were repeated by replacing ApoA1 with a treatment with RVX-208. In this case, DLD1 cells were pre-treated for 72 hours before the start of the experiment with RVX-208 at a concentration of 30 μm and were subjected to a treatment with 15 μM of RVX-208 during the development of the experiments. […] The inventors were able to confirm said results based on the treatment of DLD1 cells expressing ABCA1 with RVX-208 under the conditions already described in detail in Example 3. In this case, the DLD1 cells overexpressing ABCA1 were pre-treated for 72 hours before the start of the experiment with RVX-208 at a concentration of 30 μm and were subjected to a treatment with 15 μM of RVX-208 during the development of the experiments. […] The levels of caveolin-1, a protein whose increased levels have been associated with increases in cell migration and invasion, were also analyzed in this experiment.

[4] = test system: E-cadherin; test: as above; details: RVX-208 30 μm 72 hours then 15 μM
Experimental: as §1

[5] = DLD1 cells overexpressing ABCA1

In the case of `COc1cc(OC)c2c(=O)[nH]c(-c3cc(C)c(OCCO)c(C)c3)nc2c1` [RVX-208, 2-(4-(2-hydroxyethoxy)-3,5-dimethylphenyl)-5,7-dimethoxyquinazolin-4(3H)-one], the “growth of three-dimensional structures (spheroids)” value [1] was “slows down the growth”, the proliferation indices ([2]; 30 μM RVX-208, ApoA1 expression not inhibited (Scr+Rvx-208), DLD1 cells (D_NoORF)) was “significantly lower” and the proliferative capacity ([2]; RVX-208 pre-treatment 72 hours at 30 μm, 15 μM during experiment, DLD1 cells) was “significant decrease in proliferative capacity”. For the same molecule, the vimentin levels ([3]; DLD1 cells) was “decrease in vimentin levels”, the vimentin levels [3, 5] was “decrease in vimentin levels” and the E-cadherin expression levels ([4]; DLD1 cells) was “increase in E-cadherin expression levels”. The E-cadherin expression levels [4, 5] was “increase in E-cadherin expression levels”.
